Assay results published in ChEMBL document CHEMBL1135009, “2-(Dimethylaminomethyl)-tetrahydroisoxazolopyridobenzazepine derivatives. Synthesis of a new 5-HT(2C) antagonist with potential anxiolytic properties” (Bioorg Med Chem Lett, 2002).

What was measured:
[1] = biological target: T1, 5-hydroxytryptamine receptor 2C (Homo sapiens, UniProt P28335); assay: Binding affinity against 5-HT2C receptor
T1 sequence (P28335 whole entry): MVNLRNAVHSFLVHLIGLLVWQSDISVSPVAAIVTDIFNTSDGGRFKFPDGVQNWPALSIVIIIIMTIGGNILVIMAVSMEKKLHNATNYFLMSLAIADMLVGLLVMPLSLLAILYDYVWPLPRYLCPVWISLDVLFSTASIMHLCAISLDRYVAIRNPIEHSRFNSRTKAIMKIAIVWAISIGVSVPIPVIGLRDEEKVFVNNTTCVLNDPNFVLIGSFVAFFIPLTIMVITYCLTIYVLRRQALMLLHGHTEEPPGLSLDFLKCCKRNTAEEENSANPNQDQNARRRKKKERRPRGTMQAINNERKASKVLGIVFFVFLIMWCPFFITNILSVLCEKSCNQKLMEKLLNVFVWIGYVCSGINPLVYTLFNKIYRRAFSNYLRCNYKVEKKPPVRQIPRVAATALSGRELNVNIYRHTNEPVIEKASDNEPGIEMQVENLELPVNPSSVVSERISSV

[2] = biological target: T2, Alpha-1A adrenergic receptor (Homo sapiens, UniProt P35348); assay: Binding affinity against Alpha-1A adrenergic receptor
T2 sequence (P35348 whole entry): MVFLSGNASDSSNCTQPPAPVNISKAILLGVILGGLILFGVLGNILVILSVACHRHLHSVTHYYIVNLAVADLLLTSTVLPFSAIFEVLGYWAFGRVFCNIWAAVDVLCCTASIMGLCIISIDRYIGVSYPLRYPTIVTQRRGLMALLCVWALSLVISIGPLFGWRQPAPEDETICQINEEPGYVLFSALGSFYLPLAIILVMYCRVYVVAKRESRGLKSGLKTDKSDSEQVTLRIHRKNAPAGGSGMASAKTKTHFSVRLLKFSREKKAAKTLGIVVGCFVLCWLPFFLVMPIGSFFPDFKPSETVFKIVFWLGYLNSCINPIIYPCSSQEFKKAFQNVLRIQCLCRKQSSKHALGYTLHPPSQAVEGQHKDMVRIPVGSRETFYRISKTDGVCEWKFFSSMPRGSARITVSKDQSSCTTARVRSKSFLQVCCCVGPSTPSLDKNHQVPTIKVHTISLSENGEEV

[3] = biological target: T3, D(4) dopamine receptor (Homo sapiens, UniProt P21917); assay: Binding affinity against Dopamine receptor D4
T3 sequence (P21917 whole entry): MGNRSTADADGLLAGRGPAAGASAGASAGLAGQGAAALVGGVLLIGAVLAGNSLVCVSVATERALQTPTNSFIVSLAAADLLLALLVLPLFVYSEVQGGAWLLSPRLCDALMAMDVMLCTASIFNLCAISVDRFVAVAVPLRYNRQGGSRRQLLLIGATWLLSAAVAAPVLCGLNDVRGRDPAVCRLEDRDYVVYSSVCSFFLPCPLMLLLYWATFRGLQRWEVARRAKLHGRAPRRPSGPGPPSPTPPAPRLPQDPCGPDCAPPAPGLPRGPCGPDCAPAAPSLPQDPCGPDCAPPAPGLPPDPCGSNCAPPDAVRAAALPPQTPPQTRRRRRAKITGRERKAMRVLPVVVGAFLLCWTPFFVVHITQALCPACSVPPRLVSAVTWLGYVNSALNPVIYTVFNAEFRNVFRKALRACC

[4] = biological target: Histamine H1 receptor (Homo sapiens, UniProt P35367); assay: Binding affinity against Histamine H1 receptor
[5] = system: Mus musculus; assay: Activity in mCPP challenge test, disinhibition measurement after sc administration; type: functional
[6] = system: Mus musculus; assay: Activity in mCPP challenge test, exploration measurements after sc administration; type: functional
[7] = biological target: T4, 5-hydroxytryptamine receptor 2A (Homo sapiens, UniProt P28223); assay: Binding affinity against 5-hydroxytryptamine 2A receptor
[8] = biological target: T5, Alpha-2A adrenergic receptor (Homo sapiens, UniProt P08913); assay: Binding affinity against Alpha-2A adrenergic receptor
T5 sequence (P08913 whole entry): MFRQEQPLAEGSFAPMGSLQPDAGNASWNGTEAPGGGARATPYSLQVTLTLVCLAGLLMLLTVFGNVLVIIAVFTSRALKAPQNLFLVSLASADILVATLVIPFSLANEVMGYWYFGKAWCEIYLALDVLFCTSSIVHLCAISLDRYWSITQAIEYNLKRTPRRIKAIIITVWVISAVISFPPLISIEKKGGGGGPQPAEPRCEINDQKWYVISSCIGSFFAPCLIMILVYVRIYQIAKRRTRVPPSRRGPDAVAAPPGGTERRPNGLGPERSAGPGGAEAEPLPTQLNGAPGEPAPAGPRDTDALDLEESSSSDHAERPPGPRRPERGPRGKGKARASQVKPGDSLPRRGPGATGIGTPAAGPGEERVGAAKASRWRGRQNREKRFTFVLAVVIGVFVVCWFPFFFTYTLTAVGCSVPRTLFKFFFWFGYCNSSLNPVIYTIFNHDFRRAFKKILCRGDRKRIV

[9] = biological target: D(2) dopamine receptor (Homo sapiens, UniProt P14416); assay: Binding affinity against Dopamine receptor D2L
[10] = biological target: D(3) dopamine receptor (Homo sapiens, UniProt P35462); assay: Binding affinity against Dopamine receptor D3
[11] = biological target: T6, 5-hydroxytryptamine receptor 1D (Homo sapiens, UniProt P28221); assay: Binding affinity against 5-HT1D receptor
Target sequence in this assay (P28221 whole entry): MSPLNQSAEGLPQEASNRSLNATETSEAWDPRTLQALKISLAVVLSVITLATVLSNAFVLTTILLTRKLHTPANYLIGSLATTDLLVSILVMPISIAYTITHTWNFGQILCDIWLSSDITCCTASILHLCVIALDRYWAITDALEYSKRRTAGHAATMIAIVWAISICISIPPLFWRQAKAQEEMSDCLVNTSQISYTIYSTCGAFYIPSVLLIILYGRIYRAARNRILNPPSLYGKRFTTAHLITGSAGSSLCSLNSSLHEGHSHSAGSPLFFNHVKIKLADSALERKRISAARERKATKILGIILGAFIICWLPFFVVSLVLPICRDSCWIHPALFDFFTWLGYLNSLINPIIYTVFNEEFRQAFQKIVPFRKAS

[12] = biological target: T6, 5-hydroxytryptamine receptor 1D; assay: Binding affinity against 5-hydroxytryptamine 1D receptor
Target sequence in this assay (P28221 whole entry, looked up): as the sequence (P28221 whole entry) above

[13] = biological target: T4, 5-hydroxytryptamine receptor 2A; assay: Binding affinity against 5-HT2A receptor
[14] = biological target: T7, 5-hydroxytryptamine receptor 1A (Homo sapiens, UniProt P08908); assay: Binding affinity against 5-HT1A receptor
T7 sequence (P08908 whole entry): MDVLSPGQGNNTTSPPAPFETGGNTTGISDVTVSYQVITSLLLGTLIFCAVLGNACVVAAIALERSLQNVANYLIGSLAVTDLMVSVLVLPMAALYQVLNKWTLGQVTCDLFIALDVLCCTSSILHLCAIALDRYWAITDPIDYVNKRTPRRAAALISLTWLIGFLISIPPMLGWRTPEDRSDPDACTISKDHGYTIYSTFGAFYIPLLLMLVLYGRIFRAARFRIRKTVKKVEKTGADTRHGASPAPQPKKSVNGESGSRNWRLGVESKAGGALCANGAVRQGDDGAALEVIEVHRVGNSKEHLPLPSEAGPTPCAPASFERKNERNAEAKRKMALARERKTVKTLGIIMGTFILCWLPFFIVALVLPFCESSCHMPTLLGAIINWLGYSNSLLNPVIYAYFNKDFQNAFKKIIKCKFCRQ

Chain of Histamine H1 receptor (P35367 whole entry): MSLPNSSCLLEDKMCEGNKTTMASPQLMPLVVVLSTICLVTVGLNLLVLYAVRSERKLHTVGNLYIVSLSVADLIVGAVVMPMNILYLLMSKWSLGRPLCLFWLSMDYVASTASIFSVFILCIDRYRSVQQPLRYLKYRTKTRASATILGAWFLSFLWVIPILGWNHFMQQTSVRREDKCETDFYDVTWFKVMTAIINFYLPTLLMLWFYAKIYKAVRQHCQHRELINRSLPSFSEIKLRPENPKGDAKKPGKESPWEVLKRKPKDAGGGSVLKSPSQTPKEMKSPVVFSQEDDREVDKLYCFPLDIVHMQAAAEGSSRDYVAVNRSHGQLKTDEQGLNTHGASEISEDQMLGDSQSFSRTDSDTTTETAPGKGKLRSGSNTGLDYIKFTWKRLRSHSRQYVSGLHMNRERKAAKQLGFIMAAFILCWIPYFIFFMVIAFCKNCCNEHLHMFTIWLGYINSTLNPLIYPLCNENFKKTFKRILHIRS
Chain of D(2) dopamine receptor (P14416 whole entry): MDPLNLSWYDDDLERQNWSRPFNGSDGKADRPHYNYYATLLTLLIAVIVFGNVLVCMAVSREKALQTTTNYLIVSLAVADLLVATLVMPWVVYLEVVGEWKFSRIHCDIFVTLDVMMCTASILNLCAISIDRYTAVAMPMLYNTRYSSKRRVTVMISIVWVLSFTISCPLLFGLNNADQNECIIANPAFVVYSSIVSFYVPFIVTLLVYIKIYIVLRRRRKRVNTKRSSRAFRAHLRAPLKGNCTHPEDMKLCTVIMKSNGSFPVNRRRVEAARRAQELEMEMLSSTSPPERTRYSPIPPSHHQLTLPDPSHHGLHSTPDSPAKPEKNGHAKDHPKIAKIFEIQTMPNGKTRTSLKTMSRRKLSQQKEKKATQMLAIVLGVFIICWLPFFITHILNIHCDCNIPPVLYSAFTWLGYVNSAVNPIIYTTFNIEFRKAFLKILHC
Chain of D(3) dopamine receptor (P35462 whole entry): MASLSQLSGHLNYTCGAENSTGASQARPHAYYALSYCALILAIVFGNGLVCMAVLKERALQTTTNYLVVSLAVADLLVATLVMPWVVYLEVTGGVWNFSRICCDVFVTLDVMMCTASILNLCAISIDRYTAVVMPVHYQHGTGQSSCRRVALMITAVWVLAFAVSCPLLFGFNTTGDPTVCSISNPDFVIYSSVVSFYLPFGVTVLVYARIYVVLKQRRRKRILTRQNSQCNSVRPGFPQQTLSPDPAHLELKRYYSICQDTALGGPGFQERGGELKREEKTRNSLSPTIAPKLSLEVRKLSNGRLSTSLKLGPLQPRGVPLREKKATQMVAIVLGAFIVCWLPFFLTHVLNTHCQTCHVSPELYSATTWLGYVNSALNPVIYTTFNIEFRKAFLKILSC
T4 sequence (P28223 whole entry): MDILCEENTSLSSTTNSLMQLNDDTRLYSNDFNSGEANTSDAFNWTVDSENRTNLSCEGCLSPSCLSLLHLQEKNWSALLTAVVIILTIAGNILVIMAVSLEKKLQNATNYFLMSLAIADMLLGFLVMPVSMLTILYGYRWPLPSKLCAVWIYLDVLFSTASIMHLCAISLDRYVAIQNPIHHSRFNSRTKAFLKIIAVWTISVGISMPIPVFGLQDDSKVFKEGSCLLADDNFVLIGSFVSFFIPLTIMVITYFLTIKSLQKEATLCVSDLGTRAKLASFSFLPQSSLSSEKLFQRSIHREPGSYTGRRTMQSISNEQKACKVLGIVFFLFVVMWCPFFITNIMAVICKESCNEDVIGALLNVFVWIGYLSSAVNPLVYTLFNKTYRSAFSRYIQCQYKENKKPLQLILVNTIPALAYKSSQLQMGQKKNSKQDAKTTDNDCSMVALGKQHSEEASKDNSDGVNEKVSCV

IC50 [1]	IC50 [2]	IC50 [3]	IC50 [4]	IC50 [7]	Structure (SMILES)	ED50 [5]	ED50 [6]	IC50 [8]	IC50 [9]	IC50 [10]	IC50 [11]	IC50 [12]	IC50 [13]	IC50 [14]
0.00105 µM	0.0145 µM	0.00263 µM	0.00234 µM	–	CN(C)CC1CC2c3ccccc3Cc3ccc(Cl)cc3N2O1 (stereo not given)	0.16 mg/kg	> 2.5 mg/kg	–	–	–	–	–	–	–
0.0126 µM	0.398 µM	0.251 µM	> 1 µM	0.389 µM	CN(C)CC1CC2c3ccccc3Cc3ccncc3N2O1 (stereo not given)	0.16 mg/kg	2.5 mg/kg	> 1 µM	1.91 µM	1.66 µM	–	–	–	–
–	–	–	–	–	CN(C)CC1CC2c3ccccc3Cc3ccccc3N2O1 (stereo not given)	0.01 mg/kg	> 2.5 mg/kg	–	–	–	–	–	–	–

Structure (SMILES)	IC50 [1]	IC50 [2]	IC50 [3]	IC50 [4]	IC50 [7]	ED50 [5]	ED50 [6]	IC50 [8]	IC50 [9]	IC50 [10]	IC50 [11]	IC50 [12]	IC50 [13]	IC50 [14]
CN(C)CC1CC2c3cccnc3Cc3ccccc3N2O1 (stereo not given)	–	> 1 µM	> 1 µM	0.0166 µM	–	< 2.5 mg/kg	< 2.5 mg/kg	> 1 µM	> 1 µM	> 1 µM	> 1 µM	0.912 µM	> 1 µM	> 1 µM
